# Assay results published in US20240382469A1, “COMBINATION THERAPY WITH DEUTERATED IMIDAZOQUINOLINES” (BIRDIE BIOPHARMACEUTICALS, INC., priority 2021, published 2024).
# What was measured:
# [1] = test system: CT26 tumor cells; assay: In vivo efficacy of deuterated compounds in combination with an anti-PD-1 antibody in CT26 animal model; parameters: species or system BALB/c mice; details: for tumor size as compared to placebo group and to anti-PD-1 antibody alone group / tumor size over the experimental period: 1.6 μg compound s.c. in combination with 50 μg anti-PD-1 antibody i.p., FIG. 1; for tumor size as compared to placebo group and to anti-PD-1 antibody alone group: days 6, 9 and 12, p<0.05 for both comparisons; for tumor size over the experimental period: followed to day 28
# Procedure: Female BALB/c mice (5 to 6-week-old) were randomly divided into 5 groups (n=5 per group), including (1) placebo (PBS; s.c.); (2) anti-PD-1 antibody (50 μg; i.p.); (3) compound 1 and anti-PD-1 antibody; (4) compound 2 and anti-PD-1 antibody; (5) compound 3 and anti-PD-1 antibody.
# To challenge mice, CT26 tumor cells (1×10^6 in 0.1 mL) were injected subcutaneously on day 0. Then, mice in each group received totally three doses of placebo, anti-PD-1 antibody or indicated combination therapy on days 6, 9 and 12. In each dose of combination therapy, 1.6 μg of TLR7/8 agonist (compound 1, 2 or 3) was given subcutaneously, and 50 μg of anti-PD-1 antibody (mAb) was given intraperitoneally. All mice were sacrificed on day 28. The tumor size was determined twice a week by multiplication of caliper measurements based on the modified ellipsoidal formula: Tumor volume=½ (length × width^2). Mice with tumor length over 2 cm were considered dead and mice without measurable or palpable tumor masses were considered tumor-free. The significance of all comparisons was calculated by using t-test, and results considered significant when p<0.05.
# [2] = test system: CT26 tumor cells; assay: In vivo efficacy of compound 1 or proto-resiquimod in combination with an anti-PD-1 antibody in CT26 animal model; parameters: species or system BALB/c mice
# Procedure: Female BALB/c mice (5 to 6-week-old) were randomly divided into 4 groups (n=5 per group), including (1) placebo (PBS; i.p.); (2) anti-PD-1 antibody (50 μg; i.p.); (3) compound 1 (1.6 μg; s.c.) and anti-PD-1 antibody (50 μg; i.p.); (4) proto-resiquimod (1.6 μg; s.c.) and anti-PD-1 antibody (50 μg; i.p.).
# To challenge mice, CT26 tumor cells (1×10^6 in 0.1 mL) were injected subcutaneously on day 0. Then, mice in each group received totally three doses of placebo, anti-PD-1 antibody or indicated combination therapy. In placebo group, mice received PBS (s.c.) on days 7, 14 and 21. In anti-PD-1 antibody alone group, mice received 50 μg of anti-PD-1 antibody (i.p.) on days 7, 10 and 14. In each combination therapy group, mice received 1.6 μg of TLR7/8 agonist (compound 1 or proto-resiquimod) (s.c.) on days 7, 14 and 21, and 50 μg of anti-PD-1 antibody (i.p.) on days 7, 10 and 14. All mice were sacrificed on day 28. By using the same method as described in example 1, the tumor size was determined and the significance of all comparisons was calculated.
# [3] = test system: TC-1 cells; assay: In vivo efficacy of compound 1 in combination with various therapeutic antibodies in TC-1 animal model; parameters: species or system C57BL/6 mice; details: days 9, 12, 15, 18 and 21, p<0.05, FIG. 3
# Procedure: Female C57BL/6 mice (5 to 6-week-old) were randomly divided into 7 groups (n=5 per group), including (1) placebo (PBS, i.p.); (2) compound 1 (1.6 μg; s.c.); (3) compound 1 and anti-CD137 antibody; (4) compound 1 and anti-TIGIT antibody; (5) compound 1 and anti-OX40 antibody; (6) compound 1 and anti-LAG3 antibody; (7) compound 1 and anti-CD47 antibody.
# To challenge, each mouse was subcutaneously injected with 1×10^6 TC-1 cells in a volume of 0.1 mL into the left flank at day 0. Then, mice in each group received totally five doses of placebo, compound 1 or indicated combination therapy on days 9, 12, 15, 18 and 21. In each dose of combination therapy, 1.6 μg of compound 1 was given subcutaneously, and 200 μg of therapeutic antibody (anti-CD137, anti-TIGIT, anti-OX40, anti-LAG3 or anti-CD47 antibody) was given intraperitoneally. All mice were sacrificed on day 34. By using the same method as described in example 1, the tumor size was determined and the significance of all comparisons was calculated.
Structure (SMILES),tumor size as compared to placebo group and to anti-PD-1 antibody alone group [1],tumor size over the experimental period [1],"tumor inhibitory effect compared with the other deuterated compounds ([1]; in combination with anti-PD-1 antibody, p<0.05 for each comparison)","tumor size ([2]; 1.6 μg TLR7/8 agonist s.c. days 7, 14 and 21 in combination with 50 μg anti-PD-1 antibody i.p. days 7, 10 and 14, FIG. 2)","tumor inhibitory effect compared with proto-resiquimod ([2]; in combination with anti-PD-1 antibody, p<0.05)",tumor size as compared to placebo group or compound 1 alone group ([3]; 1.6 μg compound 1 s.c. in combination with 200 μg anti-CD47 antibody i.p.),tumor size as compared to placebo group or compound 1 alone group ([3]; 1.6 μg compound 1 s.c. in combination with 200 μg anti-CD137 antibody i.p.),tumor size as compared to placebo group or compound 1 alone group ([3]; 1.6 μg compound 1 s.c. in combination with 200 μg anti-LAG3 antibody i.p.),tumor size as compared to placebo group or compound 1 alone group ([3]; 1.6 μg compound 1 s.c. in combination with 200 μg anti-OX40 antibody i.p.),tumor size as compared to placebo group or compound 1 alone group ([3]; 1.6 μg compound 1 s.c. in combination with 200 μg anti-TIGIT antibody i.p.)
[2H]C([2H])([2H])C(O)(Cn1c(COCC)nc2c(N)nc3ccccc3c21)C([2H])([2H])[2H] [Compound 3],significantly reduce tumor size,"initially well controlled, however, slightly grew at the last week",,,,,,,,
[2H]C([2H])([2H])C(O)(C([2H])([2H])[2H])C([2H])([2H])n1c(COCC)nc2c(N)nc3ccccc3c21 [Compound 2],significantly reduce tumor size,"initially well controlled, however, slightly grew at the last week",,,,,,,,
[2H]C([2H])([2H])C([2H])([2H])OCc1nc2c(N)nc3ccccc3c2n1CC(C)(C)O [Compound 1],significantly reduce tumor size,almost completely suppressed tumor size,outstanding and significant tumor inhibitory effect than compounds 2 or 3,potently inhibit tumor size,more significant tumor inhibitory effect than proto-resiquimod,significantly suppress tumor size,significantly suppress tumor size,significantly suppress tumor size,significantly suppress tumor size,significantly suppress tumor size
